The conditions of series [1]: background statement; cited from earlier work.
The test system of series [2] is airway resistance in experimental asthma model. In words: Effect on experimental asthma model in guinea pigs. It is filed as in vivo, guinea pigs (Male hadley). To be noted: Table 7. The procedure, abridged: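 Male Hartley guinea pigs sensitized i.p. with 5 mg ovalbumin three times weekly, challenged 2 weeks later by 1 min inhalation of 1% OVA. Compounds dosed orally at 100 mg/kg in 0.5% CMCNa; airway resistance recorded 30 min, inhibition % from maximum resistance versus vehicle (n=5).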

The subject of series [3] is contact dermatitis induced by picryl chloride. Put plainly: Effect on contact dermatitis induced by picryl chloride in mice (delayed type hypersensitization). To be noted: 100 mg/kg oral, ear thickness 24 hours after challenge, Table 6; for inhibition in vivo at 100 mg/kg: Mus musculus, read-out: Inhibition (%) against the increase of ear thickness. It is filed as in vivo. The procedure, abridged: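 Mice sensitized on abdomen with 7 mg picryl chloride, ear-challenged 7 days later with 1% picryl chloride; compounds dosed orally at 100 mg/kg in 0.5% CMCNa 1 h before and 16 h after challenge.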

Series [4] has as its system homologous passive cutaneous anaphylaxis (PCA) reaction. Put plainly: Effect on homologous passive cutaneous anaphylaxis (PCA) reaction in rats. It is filed as in vivo, rats (Male wistar rats). Conditions: 100 mg/kg oral, 1 hour before antigen, rats, Table 3; for inhibition in vivo at 100 mg/kg: Rattus norvegicus, 0.5 h. The procedure, abridged: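 Male Wistar rats (9 weeks) sensitized intradermally with anti-TNP-ascaris serum; 48 h later compounds dosed orally at 100 mg/kg in 0.5% CMCNa, n=5 per group. Challenge 1 h post-dose with i.v. TNP-As plus Evans Blue; blue-spot diameter measured at 30 min, inhibition calculated versus vehicle group.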

Where [5] appears, read: Cavia porcellus, 100 mg/kg oral, OVA challenge, guinea pigs.

On to `O=C(O)c1cc(=O)c2c(OCC(O)COc3cccc4oc(C(=O)O)cc(=O)c34)cccc2o1` [DSCG, reference compound], for which the gastrointestinal absorbability entry in series [1] is listed as “extremely poor”. Also, the inhibition in vivo at 20 mg/kg in series [2] (Cavia porcellus, iv, positive control DSCG 20 mg/kg injected into the vein) is 50.5%.
Turning to `CCCCCCCCCCCCOc1ccc2c(O[C@@H]3O[C@H](CO)[C@@H](O)[C@H](O)[C@H]3O)c(OC(C)=O)c(=O)oc2c1` [compound 75], the values for the inhibition in vivo at 100 mg/kg in series [3], in series [2] (setting [5]) and in series [4] were 46.2%, 45.2% and 43.3%, respectively.
As to `CCCCOc1ccc2c(O[C@H]3O[C@H](CO)[C@@H](O)[C@H](O)[C@@H]3O)c(O)c(=O)oc2c1` [compound 79], the inhibition in vivo at 100 mg/kg in series [3] was 46.3%; in series [2] (setting [5]) it was 50.3%; in series [4] it was 47.1%.
In the case of `CC(=O)Oc1ccc2c(O[C@H]3O[C@H](CO)[C@@H](O)[C@H](O)[C@@H]3O)c(O)c(=O)oc2c1` [compound 106], the inhibition in vivo at 100 mg/kg in series [3] was determined as 40.1%; in series [2] (setting [5]), 46.2%; in series [4] it was 42.2%.
As for `CCCCOc1ccc2c(O[C@@H]3O[C@H](CO)[C@H](O)[C@H](O)[C@H]3O)c(OC(C)=O)c(=O)oc2c1` [compound 102], the inhibition in vivo at 100 mg/kg was found to be 46.3% in series [3], 50.3% in series [2] (setting [5]) and 46.3% in series [4].
Turning to `CCCCCCCCOc1ccc2c(O[C@H]3O[C@H](CO)[C@@H](O)[C@H](O)[C@@H]3O)c(O)c(=O)oc2c1` [compound 80], the inhibition in vivo at 100 mg/kg was 50.3% in series [3], 63.3% in series [2] (setting [5]) and 50.5% in series [4].
Regarding `COc1ccc2c(O[C@@H]3O[C@H](CO)[C@@H](O)[C@H](O)[C@H]3O)c(OC(=O)c3ccccc3)c(=O)oc2c1` [compound 73], the inhibition in vivo at 100 mg/kg amounted to 45.8% in series [3], 44.7% in series [2] (setting [5]) and 45.8% in series [4].
With `O=c1oc2cc(O)ccc2c(O[C@H]2O[C@H](CO)[C@@H](O)[C@H](O)[C@@H]2O)c1O` [compound 77], the inhibition in vivo at 100 mg/kg in series [3] turned out to be 39.6%; in series [2] (setting [5]), 37.3%; in series [4] it was 42.7%.
On to `CCCCCCOc1ccc2c(O[C@@H]3O[C@H](CO)[C@H](O)[C@H](O)[C@H]3O)c(O)c(=O)oc2c1` [compound 120], for which the inhibition in vivo at 100 mg/kg was determined as 65.2% in series [3], 78.9% in series [2] (setting [5]) and 64.3% in series [4].
For `COc1ccc2c(O)c(O[C@@H]3O[C@H](COC(C)=O)[C@H](OC(C)=O)[C@H](OC(C)=O)[C@H]3OC(C)=O)c(=O)oc2c1` [compound 9, 7-methoxy-4-hydroxy-3-(tetra-O-acetyl-β-D-galactopyranosyloxy)-2H-1-benzopyran-2-one] the same measures were 50.1%, 58.4% and 51.3%.
Turning to `COc1ccc2c(O[C@@H]3O[C@H](CO)[C@@H](O)[C@H](O)[C@H]3O)c(O)c(=O)oc2c1` [compound 61, 7-methoxy-3-hydroxy-4-(β-D-glucopyranosyloxy)-2H-1-benzopyran-2-one], the inhibition in vivo at 100 mg/kg in series [3] amounted to 50.7%; in series [2] (setting [5]) it was 53.3%; in series [4], 49.2%.
`O=C(Oc1ccc2c(O)c(O[C@H]3O[C@H](CO)[C@@H](O)[C@H](O)[C@@H]3O)c(=O)oc2c1)c1ccccc1` [compound 30]: the inhibition in vivo at 100 mg/kg in series [3] was found to be 48.7%; in series [2] (setting [5]), 47.8%; in series [4] it was 41.7%.
As for `COc1ccc2c(OCc3ccccc3)c(O[C@@H]3O[C@H](COC(C)=O)[C@@H](OC(C)=O)[C@H](OC(C)=O)[C@@H]3OC(C)=O)c(=O)oc2c1` [compound 6, 7-methoxy-4-benzyloxy-3-(tetra-O-acetyl-β-D-mannopyranosyloxy)-2H-1-benzopyran-2-one], the “Inhibition (%) against the increase of ear thickness” value in series [3] was 41.9%. Besides, the “Inhibition (%) of the airway resistance” value in series [2] (100 mg/kg oral, OVA challenge, guinea pigs) was found to be 38.5%. In addition, the “Inhibition (%) of PCA reaction” value in series [4] is listed as 42.3%.
Turning to `O=c1oc2cc(O)ccc2c(O)c1O[C@@H]1O[C@H](CO)[C@@H](O)[C@H](O)[C@H]1O` [compound 14], the inhibition in vivo at 100 mg/kg in series [3] was found to be 47.5%; in series [2] (setting [5]), 52.3%; in series [4], 50.2%.
Turning to `O=c1oc2cc(O)ccc2c(O)c1O[C@@H]1O[C@H](CO)[C@H](O)[C@H](O)[C@H]1O` [compound 32], the inhibition in vivo at 100 mg/kg is 48.1% in series [3], 54.8% in series [2] (setting [5]) and 43.2% in series [4].
As to `COc1ccc2c(O)c(O[C@@H]3O[C@H](CO)[C@@H](O)[C@H](O)[C@H]3O)c(=O)oc2c1` [compound 5, 7-methoxy-4-hydroxy-3-(β-D-glucopyranosyloxy)-2H-1-benzopyran-2-one], the inhibition in vivo at 100 mg/kg in series [3] was 51.2%; in series [2] (setting [5]), 62%; in series [4], 48.7%.
In the case of `CC(C)=CCC/C(C)=C/COc1ccc2c(O[C@@H]3O[C@H](CO)[C@H](O)[C@H](O)[C@H]3O)c(O)c(=O)oc2c1` [compound 99], the results for the inhibition in vivo at 100 mg/kg in series [3], in series [2] (setting [5]) and in series [4] were 59.4%, 77.7% and 58.6%, respectively.
Regarding `CCCCCCCCOc1ccc2c(O[C@@H]3O[C@H](CO)[C@@H](O)[C@H](O)[C@H]3O)c(O)c(=O)oc2c1` [compound 66], the values for the inhibition in vivo at 100 mg/kg in series [3], in series [2] (setting [5]) and in series [4] were 62.5%, 74.1% and 63.8%, respectively.
As to `CCCCOc1ccc2c(O[C@@H]3O[C@H](CO)[C@@H](O)[C@H](O)[C@H]3O)c(O)c(=O)oc2c1` [compound 63, 7-butoxy-3-hydroxy-4-(β-D-glucopyranosyloxy)-2H-1-benzopyran-2-one], the inhibition in vivo at 100 mg/kg in series [3] was 57.1%; in series [2] (setting [5]), 64.7%; in series [4], 57.4%.
For `CC(C)=CCC/C(C)=C/COc1ccc2c(O[C@@H]3O[C@H](CO)[C@@H](O)[C@H](O)[C@H]3O)c(O)c(=O)oc2c1` [compound 71] the same measures were 57.1%, 65.2% and 57.4%.
`CCCCCCCCOc1ccc2c(O)c(O[C@@H]3O[C@H](CO)[C@H](O)[C@H](O)[C@H]3O)c(=O)oc2c1` [compound 34]: the inhibition in vivo at 100 mg/kg in series [3] turned out to be 64.2%; in series [2] (setting [5]), 78.3%; in series [4], 64.3%.
As for `CCCCCCCCCCCCOc1ccc2c(O)c(O[C@@H]3O[C@H](CO)[C@H](O)[C@H](O)[C@H]3O)c(=O)oc2c1` [compound 35], the figures for the inhibition in vivo at 100 mg/kg in series [3], in series [2] (setting [5]) and in series [4] were 61.1%, 75.2% and 60.1%, respectively.
In the case of `COc1ccc2c(OCc3ccccc3)c(O[C@@H]3O[C@H](COC(C)=O)[C@H](OC(C)=O)[C@H](OC(C)=O)[C@H]3OC(C)=O)c(=O)oc2c1` [compound 7, 7-methoxy-4-benzyloxy-3-(tetra-O-acetyl-β-D-galactopyranosyloxy)-2H-1-benzopyran-2-one], the inhibition in vivo at 100 mg/kg in series [3] turned out to be 40.3%; in series [2] (setting [5]), 43.7%; in series [4], 41.1%.
As to `COc1ccc2c(O[C@H]3O[C@H](CO)[C@@H](O)[C@H](O)[C@@H]3O)c(OC(=O)c3ccccc3)c(=O)oc2c1` [compound 87], the results for the inhibition in vivo at 100 mg/kg in series [3], in series [2] (setting [5]) and in series [4] were 42.4%, 42.5% and 44.7%, respectively.
For `CCC=CCCOc1ccc2c(O)c(O[C@H]3O[C@H](CO)[C@@H](O)[C@H](O)[C@@H]3O)c(=O)oc2c1` [compound 28] the same measures were 50.3%, 57.2% and 53.4%.
As for `O=C(Oc1ccc2c(O[C@H]3O[C@H](CO)[C@@H](O)[C@H](O)[C@@H]3O)c(O)c(=O)oc2c1)c1ccccc1` [compound 86], the inhibition in vivo at 100 mg/kg was 39.1% in series [3], 41.2% in series [2] (setting [5]) and 43% in series [4].
On the same counts, the results for `CC(C)Oc1ccc2c(O)c(O[C@@H]3O[C@H](CO)[C@H](O)[C@H](O)[C@H]3O)c(=O)oc2c1` [compound 36] are 58.2%, 66.4% and 56.7%.
For `COc1ccc2c(O[C@@H]3O[C@H](CO)[C@H](O)[C@H](O)[C@H]3O)c(OC(=O)c3ccccc3)c(=O)oc2c1` [compound 101] the same measures were 47.2%, 56.2% and 45.2%.

Values taken from patent US5525595A, “3- or 4-glycosyloxybenzopyran derivative and antiallergic agent containing the derivative as active ingredient” (priority 1993, dated 1996).
